Reference: patent publication US20190352341A1, “MODIFIED PEPTIDES AND THEIR USE FOR TREATING SYSTEMIC LUPUS ERYTHEMATOSUS” (IMMUPHARMA FRANCE SA, priority 2018, published 2019)
Numbered stars: 1 amine (or outer) side, 2 acyl side, 3 side chain; on linkers, the order of the positions; unused ones are H or OH. Square brackets hold non-standard residues; d marks the D form. Peptide text beside a SMILES is read from it. ξ: configuration not given here. X1 = CSCC[C@H](NC(=N)[C@H](Cc1c[nH]cn1)N[*:1])C(=O)[*:2]; pS = N[C@@H](COP(=O)(O)O)C(=O)O; Ile(3ξ) = CCC(C)[C@H](N)C(=O)O

Tests used:
[1] = Stability of the peptides at 37° C. (HPLC peak area); format: physicochemical; details: for 95% of stability (predicted): time to 95% from linear equation; for Stability (%) Linear equation: slope: y = stability %, x = days; for Stability (%): 10% mannitol
Protocol: The stability of the peptide SEQ ID NO: 1 in which the serine at position 10 is phosphorylated and the methionine at position 4 is oxydized (P140(MO)), and the peptide SEQ ID NO: 1 in which the serine at position 10 is phosphorylated (P140) was measured at 37° C., in a solution of 10% (v/v) mannitol. For each peptide, 3 concentrations have been tested: 200, 100 and 50 μg/mL.
At the indicated time, the integrity of P140 and P140(MO) peptides was measured in saline by high-performance liquid chromatography from the area of the peak corresponding to the intact peptide.
Stability is measured by using the HPLC peak surface.

CD4+ T splenocytes = test: Collagen-induced arthritis (CIA) mouse model, ex vivo T splenocyte proliferation; format: in vivo; details: DBA/1 CIA mice, peptide i.v. day −1, +7, +14, +20; 100 μg CII/mL, CFSE assay by FACS
Protocol: Next, P140 peptide was administered in a model of mice that develop a RA-like disease (we anticipated to use this mouse model as a negative control of MRL/lpr-lupus prone mice). This model, called collagen-induced arthritis (CIA) mouse model, is the most commonly studied autoimmune model of RA. In this model, autoimmune arthritis is induced by immunizing DBA/1 mice with an emulsion of complete Freund's adjuvant (CFA) and type II collagen (CII), and typically, the first signs of arthritis appear in 21-28 days after immunization (Brand et al., 2007). CIA shares several pathological features with human RA, and CII is a major protein in cartilage, the target tissue of RA. Pathological features include synovial hyperplasia, mononuclear cell infiltration, and cartilage degradation. Susceptibility in these mice is linked to the expression of specific MHC class II genes, DBA/1 have H-2^q haplotype.
P140 peptide was thus administrated intravenously to DBA/1 mice at day −1, +7, +14 and +20 in a setting close to the one we used in MRL/lpr mice ([…]). CII in CFA was injected at days+1 and +21 (200 μg, intradermal route). Mouse weight and their clinical score were followed using very classical procedure. Biological parameters were also evaluated (i.e. T cell response, antibody response, joint histology, etc).

MRL/lpr mice = test: MRL/lpr mouse model of Gougerot-Sjögren syndrome (salivary glands); format: in vivo
Protocol: In this study MRL/lpr female 11-12 week old mice were used with 10 mice per group for statistical analysis. Each mouse received a single injection by retro-orbital, 100 μg of peptide P140 of 100 μl in […] NaCl. After 5 days, the mouse blood was collected in heparinized tube and salivary glands (GSS) were removed and placed in Eppendorf tubes containing PBS pH 7.4.
The number of foci site (FS) is determined for each mouse. A focus is defined as an aggregate of 50 or more cells.
The level of inflammation SG is determined semiquantitatively by a scoring system (0-3 scale): Grade 0: no inflammatory cells; Grade 1: few perivascular inflammatory and periductal Infiltrates (<100 cells); Grade 2: moderate number of perivascular inflammatory and periductal Infiltrates (100-500 cells); Grade 3: extensive inflammation with inflammatory foci broad (>500 cells).
Cells of total salivary glands stained with fluorescently were labeled antibodies for 40 min at 4° C., Were Collected data by FACSCalibur.
The weight of salivary glands Was Measured after-excision. DNase I (1 mg/ml) and collagenase D (50 μg/ml) were used to digest the salivary glands. Total cell counts were evaluated after the digestion.
The MRL/lpr mice (10 mice per arm) were injected with peptide P140 (100 μl/mouse iv). Five days after injection the mice were sacrificed and SGs collected as indicated above. The tissue was cut by the cryostat sections of 5 μm. The sections were labeled with hematoxylin/eosin staining is the method most frequently used in tissue histology. The level of inflammation and the number of FS were determined (FIGS. 19 and 20). Representative pictures are from sample control group 4 and group Treated sample (Bar 500 μm).

C57BL/6 mice = test: K/B×N serum transfer mouse model of rheumatoid arthritis; format: in vivo
Protocol: The TCR transgenic mice expressing the KRN and the MHC class II A^g7 molecule (K/B×N mice) have developed a severe inflammatory arthritis. The administration of serum of these mice to healthy recipient mice causes inflammatory arthritis over a period of about 15 days with a peak ignition around day 7 post-injection.
Two mouse serum administrations from K/B×N were performed (day 0 and day 2). The injection of serum (100 μl/mouse) is performed by intra-peritoneal (ip) injection in mice C57BL/6 (or B6) for 8 weeks (n=10); untreated mouse (n=10).
The P140 peptide (100 μg/100 μl; iv retro-orbital) was administered as follows:
Curative treatment: Injection at day 1 and day 4, to guide the peak of inflammatory disease. Preventive treatment: Injection at day −7 and day −2. Bleeding S0 (at day 0) is followed by bloodletting conducted every six days to dispose of serum. The study ends when inflammation has returned to its basal level, to around day 20 (see FIG. 21).
During the peak of inflammation, every day the animals are evaluated, and swelling score of articulation is established. It is ranged from 0 to 4 and based on a joint observation of the animal. In practice, this score is given for each leg (4 values) and these values are added together to get a general score that ranges from 0 to 16 (FIG. 22).

[2] = system: peripheral T cells from lupus patients; details: cited from earlier work
[3] = 5 days after one single iv injection, flow cytometry

CCC(C)[C@H](NC(=O)[C@H](Cc1ccccc1)NC(=O)[C@H](C)NC(=O)[C@H](Cc1ccc(O)cc1)NC(=O)CNC(=O)[C@H](CCCNC(=N)N)NC(=O)[C@@H]1CCCN1C(=O)[C@H](CCCCN)NC(=O)CNC(=O)[C@H](COP(=O)(O)O)NC(=O)[C@H](CCCNC(=N)N)NC(=O)[C@H](CCCCN)NC(=O)[C@H](CO)NC(=O)[C@H](Cc1ccc(O)cc1)NC(=O)[C@@H](NC(=O)[C@H](CCSC)NC(=N)[C@H](Cc1c[nH]cn1)NC(=O)[C@@H](NC(=O)[C@@H](N)CCCNC(=N)N)C(C)CC)C(C)C)C(=O)N[C@@H](CCC(=O)O)C(=O)N[C@@H](Cc1ccc(O)cc1)C(=O)O (some centres unmarked) [Compound P140] (H-R[Ile(3ξ)][X1]VYSKR[pS]GKPRGYAF[Ile(3ξ)]EY-OH)
Stability (%) Linear equation: intercept ([1]; 50 μg/mL): 98.299
95% of stability (predicted) ([1]; 50 μg/mL): 1 months
Stability (%) Linear equation: slope ([1]; 50 μg/mL): y = −0.099x +
Stability (%) Linear equation: intercept ([1]; 100 μg/mL): 99.25
95% of stability (predicted) ([1]; 100 μg/mL): 2 months
Stability (%) Linear equation: slope ([1]; 100 μg/mL): y = −0.0612x +
Stability (%) Linear equation: intercept ([1]; 200 μg/mL): 99.535
95% of stability (predicted) ([1]; 200 μg/mL): 6 months
Stability (%) Linear equation: slope ([1]; 200 μg/mL): y = −0.0238x +
Stability (%) ([1]; 50 μg/mL, day 0): 100%
Stability (%) ([1]; 50 μg/mL, day 20): 95.5%
Stability (%) ([1]; 50 μg/mL, day 40): 93.2%
Stability (%) ([1]; 50 μg/mL, day 60): 91.5%
Stability (%) ([1]; 50 μg/mL, day 80): 90.3%
Stability (%) ([1]; 50 μg/mL, day 100): 89.6%
Stability (%) ([1]; 100 μg/mL, day 0): 100%
Stability (%) ([1]; 100 μg/mL, day 20): 97.5%
Stability (%) ([1]; 100 μg/mL, day 40): 96.2%
Stability (%) ([1]; 100 μg/mL, day 60): 95.5%
Stability (%) ([1]; 100 μg/mL, day 80): 94.5%
Stability (%) ([1]; 100 μg/mL, day 100): 93.4%
Stability (%) ([1]; 200 μg/mL, day 0): 100%
Stability (%) ([1]; 200 μg/mL, day 20): 98.7%
Stability (%) ([1]; 200 μg/mL, day 40): 98.5%
Stability (%) ([1]; 200 μg/mL, day 60): 97.9%
Stability (%) ([1]; 200 μg/mL, day 80): 97.6%
Stability (%) ([1]; 200 μg/mL, day 100): 97.4%
CD4+ T splenocytes proliferation ex vivo in the presence of CII (CD4+ T splenocytes): strongly diminished
Lymphocytic infiltration in the SGs (MRL/lpr mice; 5 days after one single administration, hematoxylin/eosin): significantly reduced
Weight of salivary glands (SGs) (MRL/lpr mice; 5 days after one single iv injection): no statistically significant effect
CD4+ T cells in SGs (MRL/lpr mice; [3]): decreased
Total number of B cells in SGs (MRL/lpr mice; [3]): no statistically significant effect
Total number of cells present in the SGs (MRL/lpr mice; [3]): no apparent effect
Weight loss (C57BL/6 mice; curative protocol (P140 day 1 and day 4), from day 2): 15%
Weight gain (C57BL/6 mice; curative protocol, between day 5 and the end of the study, controls 5%): 20%
Inflammation score per leg, maximum (C57BL/6 mice; curative protocol, rear legs): ~1.5
Weight loss (C57BL/6 mice; preventive protocol (P140 day −7 and day −2), day 1 to day 7, controls 10%): 5%
Increase in size of joints, right back legs (C57BL/6 mice; preventive protocol, day 0 to day 7, controls about 22%): around 12%
Increase in size of the joint, left hind paws (C57BL/6 mice; preventive protocol, day 0 to day 7, controls about 30%): about 15%
Increase in size of articulation, left front leg (C57BL/6 mice; preventive protocol, controls 45%): 20%
Swelling in the joints of right front leg (C57BL/6 mice; preventive protocol, controls nearly 45%): +20%
General inflammation score, maximum (C57BL/6 mice; preventive protocol, sum of four legs, controls around 7 (printed day 7)): ≤ 5
Proliferation of peripheral T cells from lupus patients ([2]; ex vivo (Monneaux et al., 2005)): does not induce proliferation
Secretion of regulatory cytokine IL-10 in cell cultures ([2]; ex vivo, T cells from lupus patients (Monneaux et al., 2005)): high levels
